Laboratory results as given in US11186873B2, “Combination method for treating cancer by targeting immunoglobulin superfamily member 1 (IGSF1) and mesenchymal-epithelial transition factor (MET)” (WELLMARKER BIO CO., LTD., priority 2014, dated 2021).

Legend:
[1] = system: gastric cancer cell lines SNU638 and MKN45; test: Apoptosis by MET inhibitor, trypan blue exclusion, gastric cancer cells; type: cell-based, human
cleaved caspase 3 = test: Expression of cleaved caspase 3 after MET inhibitor treatment; type: cell-based, human; conditions: treatment at each concentration; SNU638 and MKN45
phosphorylation of MET = test: Western blot of MET phosphorylation after inhibiting IGSF1 by siRNA/shRNA; type: cell-based, human; conditions: AGS, MKN45, SNU638 and HCC827, concentration-dependent manner, FIG. 2E
Method: (§1) To perform Western blot analysis, proteins isolated from the respective cells were separated by SDS-PAGE and transferred to membranes (PolyScreen membranes; New England Nuclear, Boston, Mass., USA). The proteins were incubated with various antibodies (anti-phospho MET, E-cadherin (Cell signaling Technology, Beverly, Mass., USA), anti-MET, anti-r-tubulin (Santa Cruz Biotechnology, Santa Cruz, Calif., USA), anti-IGSF1 (Abnova, Jhouzih, Taipei, Taiwan)) at 4° C. for 12 hours and then washed with 1× TBS-T buffer three times for 10 minutes. The proteins were incubated with appropriate anti-rabbit-HRP or anti-mouse-HRP secondary antibody at room temperature for 2 hours and washed with 1× TBS-T buffer three times for 10 minutes, and then the expression of the proteins was detected using ECL solution (GE Healthcare Bio-Sciences Corp.). […]
(§2) To analyze the changes in MET phosphorylation by inhibition of the expression of IGSF1 as a marker for the induction of HGF-independent MET phosphorylation in human gastric cancer cell line (AGS, MKN45, SNU638) and lung cancer cell line (HCC827), the present inventors inhibited the expression of IGSF1 or MET by the siRNA method and then determined the changes in phosphorylation of the MET protein by western blot analysis.

MET [2] = test: Real-time PCR of MET expression after shRNA inhibition of IGSF1; type: cell-based, human; conditions: RNA level, SNU638 and MKN45, inhibition of IGSF1 by shRNA method
Excerpt: (§3) The present inventors inhibited the expression of IGSF1 or MET by the shRNA method in human gastric cancer cell lines SNU638 and MKN45 and then determined the changes in expression of each gene by real-time PCR.

[3] = system: human gastric cancer cell lines SNU638 and MKN45; test: Cell growth (cell counting) after shRNA, gastric cancer cells; type: cell-based; conditions: number of cells counted for 3 days, shRNA method
Excerpt: The present inventors inhibited the expression of IGSF1 or MET by the shRNA method in human gastric cancer cell lines SNU638 and MKN45 and then determined the inhibition of cell growth.

[4] = system: human gastric cancer cell lines SNU638 and MKN45; test: Colony forming assay after inhibition of IGSF1 or MET; type: cell-based
Method: Moreover, the expression of IGSF1 or MET in human gastric cancer cell lines SNU638 and MKN45 was inhibited, and then the degree of the inhibition of cell growth was determined by colony forming assay.

[5] = system: human lung cancer cell lines HCC827 and HCC194; test: Cell growth (cell counting) after shRNA, lung cancer cells; type: cell-based; conditions: number of cells at 24 hours and 48 hours, shRNA method
Excerpt: The present inventors inhibited the expression of IGSF1 or the expression of MET by the shRNA method in human lung cancer cell lines HCC827 and HCC194 and then determined the inhibition of cell growth.

IGSF1 [6] = test: Western blot of IGSF1 expression after MET shRNA; type: cell-based, human; conditions: MET shRNA concentration-dependent manner, FIG. 2E
Method: as §1, §2

IGSF1 [7] = test: Real-time PCR of IGSF1 expression after shRNA inhibition of MET; type: cell-based, human; conditions: RNA level, SNU638 and MKN45, inhibition of MET by shRNA method
Excerpt: as §3

[8] = system: human gastric cancer cell lines SNU638 and MKN45; test: Invasion chamber assay after siRNA, gastric cancer cells; type: cell-based; conditions: siRNA method
Method: (§4) HGF-independent human gastric cancer cell lines MKN45 and SNU638 and lung cancer cell line HCC827 were transfected with IGSF1 siRNA or MET siRNA for 48 hours. Plate inserts (BD Biosciences) of […] pore size were placed in a 24-well plate, and each 100 μl of matrigel (BD Biosciences) was seeded on each at a concentration of 200 μg/ml and incubated in a CO2 incubator for 30 minutes. 2.5×10^4 cells transfected with MET or IGSF1 siRNA were placed in the insert plate in a total volume of 100 μl in serum-free media. 400 μl of growth media (RPMI1640+10% FBS) were seeded on the bottom plate and cultured in a CO2 incubator for 24 hours. After 24 hours, the insert plate was washed with PBS, and the remaining cells were wiped with a cotton swab and fixed in 10% formalin for 20 minutes. After washing with purified water, the cells were stained with 0.01% crystal violet solution for 20 minutes and washed with warm water, and then the number of migrated cells was counted. […] The number of cells migrated through the insert plate in the control and the gastric cancer and lung cancer cell lines transfected with MET or IGSF1 siRNA was counted and verified.
(§5) The present inventors inhibited the expression of IGSF1 by the siRNA method in human gastric cancer cell lines SNU638 and MKN45 and then analyzed the degree of the inhibition of invasion and migration by invasion chamber assay and wound healing assay.

[9] = system: human gastric cancer cell lines SNU638 and MKN45; test: Wound healing / migration assay after siRNA, gastric cancer cells; type: cell-based; conditions: siRNA method
Method: as §4, §5

MET [10] = test: Luciferase 3'UTR reporter assay in human 293 cell line, MET; type: cell-based; conditions: wild-type vs mutated 3'UTR luciferase plasmids
IGSF1 [11] = test: Luciferase 3'UTR reporter assay in human 293 cell line, IGSF1; type: cell-based; conditions: wild-type vs mutated 3'UTR luciferase plasmids
IGSF1 [12] = test: IGSF1 expression after miR-34a/miR-34c or antagomir transfection, gastric cancer cells; type: cell-based, human
Excerpt: (§6) Moreover, as shown in the lower panel of FIG. 6B, as a result of analyzing the expression of MET and IGSF1 after transfecting miR-34a or miR-34c into human gastric cancer cell lines MKN45 and SNU638, it was observed that the expression of IGSF1 as a marker for the induction of HGF-independent MET phosphorylation and the expression of c-MET were inhibited by miR-34a or miR-34c.

MET [13] = test: MET expression after miR-34a/miR-34c or antagomir transfection, gastric cancer cells; type: cell-based, human; conditions: for expression of c-MET: MKN45 and SNU638, lower panel of FIG. 6B; for expression of MET: cell line SNU638, real-time PCR, upper panel of FIG. 6B
Excerpt: as §6

[14] = system: human gastric cancer cell line SNU638; test: Cell growth after miRNA transfection, trypan blue exclusion; type: cell-based; conditions: 300 nM, compared with the control group
Method: Human miRNA-34a (SEQ ID NO: 1; […]) or miRNA-34c (SEQ ID NO: 2; […]) was purchased from Thermo Fisher Scientific. 4×10^5 HGF-independent human gastric cancer SNU638 cells were seeded and transfected with 300 nM of miRNA-34a or miRNA-34c, and then the number of cells was counted using trypan blue exclusion method for 0, 1, 2 and 3 days.
4×10^5 HGF-independent human gastric cancer SNU638 cells or 3×10^5 MKN45 cells were transfected with 300 nM of miRNA-34a (SEQ ID NO: 1) or miRNA-34c (SEQ ID NO: 2), and then the number of cells was counted using trypan blue exclusion method for 0, 1, 2 and 3 days.

[15] = system: relevant signaling pathway; test: Expression of the relevant signaling pathway after miRNA transfection; type: cell-based; conditions: human gastric cancer cell line; lower panel of FIG. 6C
[16] = system: gastric cancer cell lines SNU638 and MKN45; test: Cell migration after miRNA or antagomir transfection, gastric cancer cells; type: cell-based, human; conditions: for migration of cells: SNU638, lower panel of FIG. 6D; for cell migration: SNU638 and MKN45, upper panel of FIG. 6D
gastric cancer cell line = test: Cell invasion after miRNA or antagomir transfection, gastric cancer cells; type: cell-based, human; conditions: middle panel of FIG. 6D
Method: […] Plate inserts (BD Biosciences) of […] pore size were placed in a 24-well plate, and each 100 μl of matrigel (BD Biosciences) was seeded on each at a concentration of 200 μg/ml and incubated in a CO2 incubator for 30 minutes. […] 400 μl of growth media (RPMI1640+10% FBS) were seeded on the bottom plate and cultured in a CO2 incubator for 24 hours. After 24 hours, the insert plate was washed with PBS, and the remaining cells were wiped with a cotton swab and fixed in 10% formalin for 20 minutes. After washing with purified water, the cells were stained with 0.01% crystal violet solution for 20 minutes and washed with warm water, and then the number of migrated cells was counted. In the case of the migration assay, the same procedure as above was carried out without coating the insert plate. The number of cells migrated through the insert plate in the control and the gastric cancer and lung cancer cell lines transfected with MET or IGSF1 siRNA was counted and verified.

MMP9 = MMP9 expression after miRNA transfection; type: cell-based, human; conditions: SNU638; lower panel of FIG. 6D
Excerpt: Furthermore, as shown in the lower panel of FIG. 6D, the transfection of gastric cancer cell line SNU638 with mir-34a or mir-34c inhibited the migration of cells and decreased the expression of MMP9.

pMET = pMET expression after miRNA/antagomir transfection, lung cancer cells; type: cell-based, human; conditions: lung cancer cell lines HCC827 and H1944
IGSF1 [17] = test: IGSF1 expression after miRNA transfection, lung cancer cells; type: cell-based, human; conditions: lung cancer cell lines HCC827 and H1944
[18] = MKN45 and SNU638, lower panel of FIG. 6B
[19] = cell line SNU638, real-time PCR, upper panel of FIG. 6B

| Compound | cell growth [3] | number of colonies [4] | cell growth [5] | luciferase activity of MET (MET [10]) | luciferase activity of IGSF1 (IGSF1 [11]) | expression of IGSF1 (IGSF1 [12]; [18]) | expression of IGSF1 (IGSF1 [12]; [19]) | expression of c-MET (MET [13]) | expression of MET (MET [13]) | growth of cancer cells [14] | expression of the relevant signaling pathway [15] | migration of cells [16] | cell migration [16] | inhibition of the invasion of cells (gastric cancer cell line) | expression of MMP9 (MMP9) | expression of pMET (pMET) | expression of IGSF1 (IGSF1 [17]) | also measured |
| --- | --- | --- | --- | --- | --- | --- | --- | --- | --- | --- | --- | --- | --- | --- | --- | --- | --- | --- |
| Cc1[nH]c(/C=C2\C(=O)Nc3ccc(S(=O)(=O)Cc4c(Cl)cccc4Cl)cc32)c(C)c1C(=O)N1CCC[C@@H]1CN1CCCC1 [PHA665752] |  |  |  |  |  |  |  |  |  |  |  |  |  |  |  |  |  | induction of apoptosis ([1]; trypan blue exclusion, treatment at each concentration): induction of apoptosis; response to the MET inhibitor ([1]; with inhibition of the expression of IGSF1): increased; expression of cleaved caspase 3 (cleaved caspase 3): increased |
| IGSF1 shRNA: shRNA against IGSF1, SEQ ID NO: 6, 5′-CAAAGAUGGAAGUGAAAUA UCUCUAUUUCACUUCCAUCUUUGUU-3′ (CAAAGAUGGAAGUGAAAUAUCUCUAUUUCACUUCCAUCUUUGUU; siRNA; shRNA hairpin, further chemistry not given here) | inhibited | decreased | inhibited |  |  |  |  |  |  |  |  |  |  |  |  |  |  | phosphorylation of MET (phosphorylation of MET): decreased; expression of MET (MET [2]): decreased |
| MET shRNA: shRNA against MET, SEQ ID NO: 7, 5′-GCCAGCCUGAAUGAUGACAUCUCUGUCAUCAUUCAGGCUGGCUU-3′ (siRNA; shRNA hairpin, further chemistry not given here) | inhibited | decreased | inhibited |  |  |  |  |  |  |  |  |  |  |  |  |  |  | expression of IGSF1 (IGSF1 [6]): decreased; expression of IGSF1 (IGSF1 [7]): decreased |
| MET siRNA: siRNA against MET, SEQ ID NO: 5, 5′-AAAGATAAACCTCTCATAATG-3′ (AAAGAUAAACCUCUCAUAAUG; listed as RNA, chemistry not given here) |  |  |  |  |  |  |  |  |  |  |  |  |  |  |  |  |  | invasion [8]: inhibited; migration [9]: inhibited |
| miR-34a: Human miRNA-34a, SEQ ID NO: 1, UGGCAGUGUCUUAGCUGGUUGU, purchased from Thermo Fisher Scientific (listed as RNA, chemistry not given here) |  |  |  | inhibited only in the wild type | inhibited only in the wild type | inhibited | decreased | inhibited | decreased | significantly inhibited | decreased | inhibited | inhibited | about 50% | decreased | decreased | decreased |  |
| miR-34c: Human miRNA-34c, SEQ ID NO: 2, AGGCAGUGUAGUUAGCUGAUUGC, purchased from Thermo Fisher Scientific (listed as RNA, chemistry not given here) |  |  |  | inhibited only in the wild type | inhibited only in the wild type | inhibited | decreased | inhibited | decreased | significantly inhibited | decreased | inhibited | inhibited | about 50% | decreased | decreased | decreased |  |
